The source made the active and inactive calls. The rule behind the calls is not given here.
What was measured:
[1] = Clearance in male Sprague-Dawley rat at 1 mg/kg, iv measured by LC-MS/MS analysis; type: ADME, organism-based; details: in vivo
Mus musculus [2] = experiment: Anti-NASH activity against high fat (HF) diet-induced nonalcoholic steatohepatitis in leptin-deficient ob/ob mouse model assessed as reduction in liver cholesterol level at 3 mg/kg, po administered once daily from week 5 to 10; type: functional, organism-based
[3] = AUC (0 to t) in male Sprague-Dawley rat at 5 mg/kg, po measured by LC-MS/MS analysis; type: ADME, organism-based; design: dose 5 mg/kg, route po; details: in vivo
[4] = AUC (0 to t) in male Sprague-Dawley rat at 1 mg/kg, iv measured by LC-MS/MS analysis; type: ADME, organism-based; design: dose 1 mg/kg, route iv; details: in vivo
[5] = Volume of distribution at steady state in male Sprague-Dawley rat at 1 mg/kg, iv measured by LC-MS/MS analysis; type: ADME, organism-based; details: in vivo, read-out: Vdss
Mus musculus [6] = experiment: Anti-NASH activity against high fat (HF) diet-induced nonalcoholic steatohepatitis in leptin-deficient ob/ob mouse model assessed as reduction in serum ALT level at 3 mg/kg, po administered once daily from week 5 to 10; type: functional, organism-based
Mus musculus [7] = experiment: Anti-NASH activity against high fat (HF) diet-induced nonalcoholic steatohepatitis in leptin-deficient ob/ob mouse model assessed as reduction in serum TG level at 3 mg/kg, po administered once daily from week 5 to 10; type: functional, organism-based
[8] = Half-life in male Sprague-Dawley rat at 5 mg/kg, po measured by LC-MS/MS analysis; type: ADME, organism-based; details: in vivo
[9] = Oral bioavailability in male Sprague-Dawley rat at 5 mg/kg measured by LC-MS/MS analysis; type: ADME, organism-based; details: in vivo
[10] = Cmax in male Sprague-Dawley rat at 5 mg/kg, po measured by LC-MS/MS analysis; type: ADME, organism-based; design: dose 5 mg/kg, route po; details: in vivo
Bile acid receptor [11] = biological target: T1, Bile acid receptor (Homo sapiens, UniProt Q96RI1); experiment: Agonist activity at FXR-LBD (unknown origin) assessed as induction of coactivator SRC-1 peptide recruitment measured by TR-FRET assay
T1 sequence (Q96RI1 whole entry): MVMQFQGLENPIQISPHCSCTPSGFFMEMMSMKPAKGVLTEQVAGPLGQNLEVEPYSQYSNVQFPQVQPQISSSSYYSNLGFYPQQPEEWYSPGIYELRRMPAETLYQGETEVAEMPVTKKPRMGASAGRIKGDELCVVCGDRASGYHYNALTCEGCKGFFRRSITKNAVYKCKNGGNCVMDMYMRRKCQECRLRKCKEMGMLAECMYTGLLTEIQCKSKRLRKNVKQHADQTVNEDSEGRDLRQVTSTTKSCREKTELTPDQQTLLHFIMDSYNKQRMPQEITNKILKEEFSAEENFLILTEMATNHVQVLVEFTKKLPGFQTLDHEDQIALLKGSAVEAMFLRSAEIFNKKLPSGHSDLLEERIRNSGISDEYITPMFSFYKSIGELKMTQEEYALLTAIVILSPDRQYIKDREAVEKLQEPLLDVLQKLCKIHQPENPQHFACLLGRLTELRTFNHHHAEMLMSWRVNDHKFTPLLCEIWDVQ

Bile acid receptor [12] = biological target: T1, Bile acid receptor; experiment: Agonist activity at human FXR expressed in HEK293T cells by luciferase reporter assay; type: cell-based
[13] = Toxicity in alpha-naphthyl- isothiocyanate (ANIT)-induced cholestatic injury model of Sprague-Dawley rat assessed as effect on […] death; details: in vivo
[14] = Toxicity in alpha-naphthyl- isothiocyanate (ANIT)-induced cholestatic injury model of Sprague-Dawley rat assessed as effect on […] death at 10 mg/kg, po administered once daily for 4 days; type: organism-based; details: in vivo, 96 h, time 4 day

SMILES: CC1Cc2ccc(C(=O)O)cc2Oc2ccc(OCc3c(-c4c(Cl)cccc4Cl)noc3C3CC3)nc21 (stereo unspecified)
- clearance [1]: 30.3 mL/min/kg
- Activity (Mus musculus [2]): Active
- AUC(0-t) [3]: 2230 ng·h/mL
- AUC(0-t) [4]: 554 ng·h/mL
- Vd [5]: 0.54 L/kg
- Activity (Mus musculus [6]): Active
- Activity (Mus musculus [7]): Active
- half-life [8]: 55.8 min
- bioavailability [9]: 44.9%
- Cmax [10]: 1280 ng/mL

SMILES: CC1=Cc2ccc(C(=O)O)cc2Oc2ccc(OCc3c(-c4c(Cl)cccc4Cl)noc3C3CC3)nc21
- clearance [1]: 17.5 mL/min/kg
- Activity (Mus musculus [2]): Active
- AUC(0-t) [3]: 1180 ng·h/mL
- AUC(0-t) [4]: 963 ng·h/mL
- Vd [5]: 0.35 L/kg
- Activity (Mus musculus [6]): Active
- Activity (Mus musculus [7]): Active
- half-life [8]: 72 min
- bioavailability [9]: 46.2%
- Cmax [10]: 2210 ng/mL

SMILES: O=C(O)c1ccc2c(c1)Oc1ccc(OCc3c(-c4c(Cl)cccc4Cl)noc3C3CC3)nc1C=C2F
- EC50 (Bile acid receptor [11]): 0.0173 µM
- EC50 (Bile acid receptor [12]): 0.219 µM

SMILES: O=C(O)c1cc(F)c2c(c1)Oc1ccc(OCc3c(-c4c(Cl)cccc4Cl)noc3C3CC3)nc1CC2
- EC50 (Bile acid receptor [12]): 0.372 µM

SMILES: O=C(O)c1ccc2c(c1)Oc1ccc(OCc3c(-c4c(Cl)cccc4Cl)noc3C3CC3)nc1CC2
- clearance [1]: 14.3 mL/min/kg
- EC50 (Bile acid receptor [11]): 0.00357 µM
- Activity (Mus musculus [2]): Active
- EC50 (Bile acid receptor [12]): 0.102 µM
- AUC(0-t) [3]: 1250 ng·h/mL
- AUC(0-t) [4]: 1180 ng·h/mL
- Vd [5]: 0.4 L/kg
- Activity (Mus musculus [6]): Active
- Activity (Mus musculus [7]): Active
- half-life [8]: 44.4 min
- Activity [13]: Non-Toxic
- bioavailability [9]: 37.1%
- Cmax [10]: 3000 ng/mL

SMILES: O=C(O)c1ccc2c(c1)Oc1ccc(OCc3c(-c4c(Cl)cccc4Cl)noc3C3CC3)nc1CO2
- EC50 (Bile acid receptor [11]): 0.0143 µM
- EC50 (Bile acid receptor [12]): 0.114 µM

SMILES: CC1=Cc2nc(OCc3c(-c4c(Cl)cccc4Cl)noc3C3CC3)ccc2Oc2cc(C(=O)O)ccc21
- EC50 (Bile acid receptor [11]): 0.00603 µM
- EC50 (Bile acid receptor [12]): 0.0873 µM

SMILES: O=C(O)c1ccc2c(c1)Oc1cnc(OCc3c(-c4c(Cl)cccc4Cl)noc3C3CC3)cc1CC2
- EC50 (Bile acid receptor [11]): 0.0117 µM
- EC50 (Bile acid receptor [12]): 0.161 µM

SMILES: O=C(O)c1ccc2c(c1)Oc1ncc(OCc3c(-c4c(Cl)cccc4Cl)noc3C3CC3)cc1CC2
- EC50 (Bile acid receptor [11]): 0.037 µM

SMILES: O=C(O)c1ccc2c(c1)Oc1ccc(OCc3c(-c4c(Cl)cccc4Cl)noc3C3CC3)cc1CC2
- EC50 (Bile acid receptor [11]): 0.833 µM
- Activity [14]: Toxic
- EC50 (Bile acid receptor [12]): 0.345 µM

Source: ChEMBL document CHEMBL5154690, “Discovery of a tricyclic farnesoid X receptor agonist HEC96719, a clinical candidate for treatment of non-alcoholic steatohepatitis” (Eur J Med Chem, 2022)
